Consider three compounds from ChEMBL document CHEMBL1122920, “Synthesis and pharmacological evaluation of cis-2,3,3a,4,5,6,7,7a-octahydro-3-oxoisoxazolo[5,4-c]pyridine: a structural analogue of the GABA agonist THIP” (J Med Chem, 1985).

The subject of one test is Mus musculus. Nature of the test: Tested for the antagonism of bicuculline -induced convulsions in female mice intraperitoneally. Particulars: ip, read-out: ID50 (the source's name). In kind it is functional.
Test [1] addresses GABA-A receptor; anion channel. Nature of the test: Displacement of [3H]- muscimol in cerebellar tissue of male rats. For orientation: Displacement assays read how much labelled ligand stays bound in the presence of the test substance.
For the next test, the species on record is Rattus norvegicus. Nature of the test: Tested for its GABA agonistic activity against spontaneous firing in explants from cerebellum of 2-4 day old rats. In kind it is functional.

Bounds are passed on as bounds.

Turning to `O=C1NOC2CNCCC12` (cis isomer), the ED50 with Mus musculus was over 56 mg/kg. Besides, the 50% inhibitory concentration (IC50) (in general, the concentration at which inhibition is half-maximal) in test [1] is over 1000 nM.
Consider `Oc1noc2c1CCNC2` [GABOXADOL], for which, in the test on Mus musculus, the ED50 was 1.9 mg/kg.
As for `NCc1cc(O)no1` [MUSCIMOL], the ED50 with Mus musculus stood at 0.76 mg/kg. Moreover, the “Decrease of spontaneous firing rate” value in the test filed under Rattus norvegicus is “>=1e-06 M”. This compound yielded an IC50 in test [1] of 3 nM.
